{"source": "ChEMBL document CHEMBL1157021", "about": "“Synthesis, structure and affinity of novel 3-alkoxy-1,2-dihydro-3H-1,4-benzodiazepin-2-ones for CNS central and peripheral benzodiazepine receptors” (Eur J Med Chem, 2010)", "key": {"[1]": {"assay": "Displacement of [3H]flumazenil from central benzodiazepine receptor in Wistar rat brain synaptosomal membrane after 60 mins by scintillation counting"}, "Translocator protein": {"molecular_target": "Translocator protein (Rattus norvegicus, UniProt P16257)", "sequence (P16257 whole entry, looked up)": "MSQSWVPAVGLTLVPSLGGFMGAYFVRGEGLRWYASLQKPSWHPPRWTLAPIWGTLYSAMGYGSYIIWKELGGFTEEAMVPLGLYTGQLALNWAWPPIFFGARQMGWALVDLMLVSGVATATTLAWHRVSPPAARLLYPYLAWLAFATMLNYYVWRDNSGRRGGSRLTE", "assay": "Displacement of [3H]PK11195 from peripheral benzodiazepine receptor in Wistar rat brain synaptosomal membrane after 120 mins by scintillation counting"}, "[2]": {"assay": "Binding affinity to central benzodiazepine receptor"}}, "data": [{"compound": "CCOC1N=C(c2ccccc2Cl)c2cc(Br)ccc2NC1=O", "note": "(racemic)", "values": [{"measurement": "IC50", "setting": "[1]", "result": 52, "unit": "nM"}, {"measurement": "IC50", "setting": "Translocator protein", "result": "> 1000", "unit": "nM"}]}, {"compound": "COCCO[C@@H]1N=C(c2ccccc2)c2cc(Br)ccc2NC1=O", "values": [{"measurement": "IC50", "setting": "[1]", "result": 245, "unit": "nM"}, {"measurement": "IC50", "setting": "Translocator protein", "result": "> 1000", "unit": "nM"}]}, {"compound": "COCCOC1N=C(c2ccccc2Cl)c2cc(Br)ccc2NC1=O", "note": "(racemic)", "values": [{"measurement": "IC50", "setting": "[1]", "result": 9, "unit": "nM"}, {"measurement": "IC50", "setting": "Translocator protein", "result": "> 1000", "unit": "nM"}]}, {"compound": "CCOC1N=C(c2ccccc2)c2cc(C)ccc2NC1=O", "note": "(racemic)", "values": [{"measurement": "IC50", "setting": "[1]", "result": "> 1000", "unit": "nM"}, {"measurement": "IC50", "setting": "Translocator protein", "result": "> 1000", "unit": "nM"}]}, {"compound": "O=C1Nc2ccc(Br)cc2C(c2ccccc2)=NC1OCCO", "note": "(centres undefined)", "values": [{"measurement": "IC50", "setting": "[1]", "result": 540, "unit": "nM"}, {"measurement": "IC50", "setting": "Translocator protein", "result": "> 1000", "unit": "nM"}]}, {"compound": "COCCOC1N=C(c2ccccc2)c2cc(Br)ccc2NC1=O", "note": "(racemic)", "values": [{"measurement": "IC50", "setting": "[1]", "result": 510, "unit": "nM"}, {"measurement": "IC50", "setting": "Translocator protein", "result": "> 1000", "unit": "nM"}]}, {"compound": "CCOC1N=C(c2ccccc2)c2cc(Br)ccc2NC1=O", "note": "(racemic)", "values": [{"measurement": "IC50", "setting": "[1]", "result": "> 1000", "unit": "nM"}, {"measurement": "IC50", "setting": "Translocator protein", "result": "> 1000", "unit": "nM"}]}, {"compound": "O=C1Nc2ccc(Br)cc2C(c2ccccc2Cl)=NC1OCCO", "note": "(racemic)", "values": [{"measurement": "IC50", "setting": "[1]", "result": 48, "unit": "nM"}, {"measurement": "IC50", "setting": "Translocator protein", "result": "> 1000", "unit": "nM"}]}, {"compound": "COCCO[C@H]1N=C(c2ccccc2)c2cc(Br)ccc2NC1=O", "values": [{"measurement": "IC50", "setting": "[1]", "result": 4930, "unit": "nM"}, {"measurement": "IC50", "setting": "Translocator protein", "result": "> 1000", "unit": "nM"}]}, {"compound": "O=C(O)CCC(=O)OC1N=C(c2ccccc2Cl)c2cc(Br)ccc2NC1=O", "note": "(centres undefined) [CINAZEPAM]", "values": [{"measurement": "Ki", "setting": "[2]", "result": 72, "unit": "nM"}]}]}
